Measured values from patent US12023330B2, “Use of manzamines as antiproliferative agent” (priority 2020, dated 2024).

Assays:
[1] = test system: cervical cancer cell lines; assay: Colony formation assay; format: cell-based, human; conditions: 2 and 4 μM; one week
Protocol: To maintain the treatment uniformity across the cell lines, we selected optimal dose concentration of 1 to 4 μM, and treated C33A, HeLa, SiHa and CaSki cell lines.
Colony Formation Assay. Cancer cell lines were seeded at a density of 1×10^3 cells/ml in 6-well plates. Following overnight incubation, the cells were treated with manzamine A (1) (2 μM and 4 μM) and incubated in a tissue culture incubator at 37° C. with 5% CO2. After one week, the developed cell colonies were fixed with 4% paraformaldehyde, stained with 0.5% crystal violet, and were photographed.

[2] = test system: normal human keratinocytes (HKc); assay: Cell growth kinetics of normal keratinocytes; format: cell-based; conditions: 4 μM stated for compound 4; 48 h and 72 h; vs DMSO control
Protocol: Based on MoIN, the additional manzamine-related compounds such as manzamine D (2), manzamine F (3), 8-hydroxymanzamine A (4), and ircinal A (5) were tested for their biological activities targeting cervical cancer cell lines (SiHa and CaSki).
Generation of Normal Human Keratinocytes (HKc). The generation and processing of normal HKc from de-identified foreskin tissue samples has previously been described in our studies, see Pirisi, L.; Yasumoto, S.; Feller, M.; Doniger, J.; DiPaolo, J. A. J. Virol. 1987, 61, 1061-1066, and was implemented with the following modifications: dispase was used in lieu of collagenase, and a trypsinization step was added to release the epidermal cells. Briefly, to generate normal HKc primary cultures, the foreskin tissue, free of subcutaneous tissue, was placed in 10% dispase in phosphate buffer saline (PBS) and incubated overnight at 37° C. The next day, the epidermis was separated from the dermis, and processed mechanically by shredding the tissue into smaller pieces that were then treated with Trypsin/EDTA for 10 minutes at 37° C. Following the addition of fetal bovine serum (10%) to stop the trypsin action, cells were collected by centrifugation and plated in keratinocytes serum free medium (KSFM).
Cell Growth Kinetics. […] The cell proliferation activity was determined by cell counting under the microscope with a hemocytometer using trypan blue staining.

[3] = test system: C33A cells; assay: Cell cycle distribution by flow cytometry (PI); format: cell-based, human; conditions: 4 μM, 48 and 72 hours
Protocol: (§1) Differential Activation of G1 Phase Arrest and Apoptosis by Manzamine A (1). To understand the mechanism of manzamine A (1)-mediated cell growth inhibition, we analyzed the cell cycle distribution by flow cytometry in C33A, HeLa, SiHa, and CaSki cell lines. […] FIGS. 3A and 3B show a representation of manzamine A (1) effect on cervical cancer cells treated with 4 μM concentration. […] The values represent standard error from the mean (mean±SE). DMSO serves as control. The significance level represents; *p<0.05; **p<0.001; ***[…]; and ns=non-significant. […] Particularly at 4 μM concentration, the percentage of G0/G1 cell population in SiHa and CaSki increased to 1.2 fold (p=0.001) and 1.4 fold (p=0.011) at 24 hours, and 1.2 fold (p=0.03) and 1.5 fold (p=0.006) at 48 hours as compared to respective DMSO control.
(§2) Cell-cycle and Apoptosis Analysis. Cervical cancer cells were seeded and treated with different concentrations of manzamine A (1) as above. Following trypsinization, one part of the cells was washed with PBS and fixed in chilled 70% ethanol on ice for 30 min. Cells were treated with RNAse A (1 mg/ml) at room temperature for 30 min and stained with propidium iodide (PI: 20 μg/ml). Cell-cycle distribution was analyzed by flow cytometry (Beckman Coulter Epics Elite, Beckman). A minimum of 10,000 events were counted per sample, and the data were analyzed using CXP software (Beckman Coulter) for the proportions of cells in G0/G1, S and G2/M phases of the cell cycle. The second part of the cells were washed twice with PBS and re-suspended in the buffer containing Alexa Fluor conjugated-Annexin-V and PI (Life Technologies, USA). The double staining of the cells was analyzed by flow cytometric analysis. A total of 10,000 cell events were collected to analyze the extent of early, late apoptosis, or necrosis from each sample with the percentages of bound annexin-V^+/PI^−, annexin V^+/PI^+, and annexin V^−/PI^+, respectively.

[4] = test system: CaSki cells; assay: Cell cycle distribution by flow cytometry (PI); format: cell-based, human; conditions: 4 μM
Protocol: as §1, §2

[5] = test system: HeLa cells; assay: Cell cycle distribution by flow cytometry (PI); format: cell-based, human; conditions: 4 μM, 48 and 72 hours, vs DMSO control
Protocol: as §1, §2

[6] = test system: SiHa cells; assay: Cell cycle distribution by flow cytometry (PI); format: cell-based, human; conditions: 4 μM
Protocol: as §1, §2

Question: For `O[C@]12C=C(c3nccc4c3[nH]c3ccccc34)[C@@H]3CCN(CCCC/C=C\CC1)C[C@@]31C[C@@H]3/C=C\CCCCN3[C@H]12` [manzamine A], which “colony formation (long-term cell growth)” value [1] is on record?
Answer: The value was “inhibited the cell growth”.

Question: And the “cell growth kinetics of normal HKc” value [2]?
Answer: Its value is “no adverse effect”.

Question: What about the G2/M cell population [3] of the same molecule?
Answer: Its G2/M cell population is “significant decrease”.

Question: What about the “cell population in G0/G1” value ([3]; vs DMSO control) of the same molecule?
Answer: Its value is “significant decrease”.

Question: What about the “increase of percentage of G0/G1 cell population vs DMSO control” value (“increase of percentage … vs DMSO control” for short) ([4]; 24 hours) of the same molecule?
Answer: The value was 1.4 fold.

Question: And the “increase of percentage … vs DMSO control” value ([4]; 48 hours)?
Answer: Its value is 1.5 fold.

Question: And the “cell population in G0/G1” value [5]?
Answer: Its value is “significant decrease”.

Question: And the “increase of percentage … vs DMSO control” value ([6]; 24 hours)?
Answer: The value was 1.2 fold.

Question: What about the “increase of percentage … vs DMSO control” value ([6]; 48 hours) of the same molecule?
Answer: Its value is 1.2 fold.
